The values that follow come from patent US6638967B2, “Thiophene of furan pyrrolidine compounds” (Ortho-McNeil Phamraceutical, Inc., priority 2000, dated 2003).

Where a name gives a salt, the structure may show the parent alone.

For this assay, the target named is T1, human histamine H3 receptor (Homo sapiens, UniProt Q9Y5N1).
T1 construct: One microgram of supercoiled H3 receptor cDNA was added to the cells and mixed; expressed in transfected cells
T1 sequence (Q9Y5N1 whole entry): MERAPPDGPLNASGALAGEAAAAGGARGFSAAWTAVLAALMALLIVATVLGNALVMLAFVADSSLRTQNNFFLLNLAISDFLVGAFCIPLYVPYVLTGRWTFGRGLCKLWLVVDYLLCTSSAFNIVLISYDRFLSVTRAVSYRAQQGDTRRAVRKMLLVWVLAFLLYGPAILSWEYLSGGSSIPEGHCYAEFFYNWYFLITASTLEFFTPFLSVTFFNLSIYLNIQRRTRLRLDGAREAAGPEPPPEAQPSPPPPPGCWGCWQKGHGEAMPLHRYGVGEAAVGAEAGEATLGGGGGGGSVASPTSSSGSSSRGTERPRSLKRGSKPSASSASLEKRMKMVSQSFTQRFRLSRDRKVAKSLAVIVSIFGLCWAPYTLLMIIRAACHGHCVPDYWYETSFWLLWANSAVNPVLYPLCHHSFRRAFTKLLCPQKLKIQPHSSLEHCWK
Nature of the assay: [3H]-N-methylhistamine binding. The settings on record: membranes of histamine H3 receptor-expressing SK-N-MC cells, 0.8 nM [3H]-N-methylhistamine, 45 min at 25° C. The method, then:
Thus in the present invention receptor binding was determined using the human histamine H3 receptor (See Lovenberg et al Mol. Pharmacol. 1999, 1107). Screening using the human receptor is particularly important for the identification of new therapies for the treatment of human disease. Conventional binding assays for example are determined using rat synaptosomes (Garbarg et al J. Pharmacol. Exp. Ther. 1992, 263, 304), rat cortical membranes (West et al Mol. Pharmacol. 1990, 610), and guinea pig brain (Korte et al Biochem. Biophys. Res. Commun. 1990, 978). Only limited studies have been performed previously using human tissue but these allude to significant differences in the pharmacology of rodent and primate receptors (West et al Eur. J. Pharmacol. 1999, 233).
Transfection of Cells With Human Histamine Receptor
A 10 cm tissue culture dish with a confluent monolayer of SK-N-MC cells was split two days prior to transfection. Using sterile technique the media was removed and the cells were detached from the dish by the addition of trypsin. One fifth of the cells were then placed onto a new 10 cm dish. Cells were grown in a 37° C. incubator with 5% CO2 in Minimal Essential Media Eagle with 10% Fetal Bovine Serum. After two days cells were approximately 80% confluent. These were removed from the dish with trypsin and pelleted in a clinical centrifuge. The pellet was then re-suspended in 400 μL complete media and transferred to an electroporation cuvette with a 0.4 cm gap between the electrodes (Bio-Rad #165-2088). One microgram of supercoiled H3 receptor cDNA was added to the cells and mixed. The voltage for the electroporation was set at 0.25 kV; the capacitance was set at 960 μF. After electroporation the cells were diluted into 10 mL complete media and plated onto four 10 cm dishes. Because of the variability in the efficiency of electroporation, four different concentrations of cells were plated. The ratios used were; 1:20, 1:10, 1:5, with the remainder of the cells being added to the fourth dish. The cells were allowed to recover for 24 hours before adding the selection media (complete media with 600 μg/mL G418). After 10 days dishes were analyzed for surviving colonies of cells. Dishes with well isolated colonies were used. Cells from individual colonies were isolated and tested. SK-N-MC cells were used because they give efficient coupling for inhibition of adenylate cyclase. The clones that gave the most robust inhibition of adenylate cyclase in response to histamine were used for further study.
[^3H]-N-methylhistamine binding
Cell pellets from histamine H3 receptor-expressing SK-N-MC cells were homogenized in 20 mM TrisHCI/0.5 mM EDTA. Supernatants from a 800 g spin were collected, recentrifuged at 30,000 g for 30 minutes. Pellets were re-homogenized in 50 mM Tris/5 mM EDTA (pH 7.4). Membranes were incubated with 0.8 nM [^3H]-N-methylhistamine plus/minus test compounds for 45 min at 25° C. and harvested by rapid filtration over GF/C glass fiber filters (pretreated with 0.3 % polyethylenimine) followed by four washes with ice cold buffer. Filters were dried, added to 4 mL scintillation cocktail and then counted on a liquid scintillation counter. Non-specific binding was defined with 10 μM histamine. The pKi values were calculated based on a Kd of 800 pM and a ligand concentration ([L]) of 800 pM according to the formula: […]
For orientation: Ki means the equilibrium dissociation constant of an inhibitor or competing ligand from its target. Low values mean tighter binding, high ones weaker binding. In turn, `c1cc(-c2ccc(CN3CCCC3)s2)ccc1CN1CCCC1` [Example 1] returned a Ki of 9 nM.
In turn, `c1cc(-c2ccc(CN3CCCC3)o2)ccc1CN1CCCC1` [Example 2] registered a Ki of 0.41 nM.
Regarding `c1cc(-c2ccc(CN3CCCC3)s2)sc1CN1CCCC1` [Example 3], the Ki was found to be 1.4 nM.
Under `c1cc(CN2CCCC2)c(-c2ccc(CN3CCCC3)cc2)s1` [Example 4, 1-[(2-(4-Pyrrolidin-1-ylmethyl-phenyl)-thiophen)-3-ylmethyl]-pyrrolidine] stands 9 nM; under `c1cc(-c2ccc(CN3CCCC3)cc2)c(CN2CCCC2)s1` [Example 5, 1-[(3-(4-Pyrrolidin-1-ylmethyl-phenyl)-thiophen)-2-ylmethyl]-pyrrolidine], 63 nM.
`c1cc(Oc2ccc(CN3CCCC3)cc2)ccc1CN1CCCC1` [Example 6]: the Ki was 0.5 nM.
In turn, `c1cc(Oc2ccc(CN3CCCCC3)cc2)ccc1CN1CCCCC1` [Example 7] had a Ki of 0.66 nM.
As for `O=S(=O)(c1ccc(CN2CCCC2)cc1)c1ccc(CN2CCCC2)cc1` [Example 8], the figure is 2.5 nM; as for `c1cc(CN2CCCC2)ccc1Cc1ccc(CN2CCCC2)cc1` [Example 9], 2 nM; as for `c1cn(Cc2ccc(Oc3ccc(Cn4ccnc4)cc3)cc2)cn1` [Example 10], 151 nM.
As for `c1cn(Cc2ccc(Cc3ccc(Cn4ccnc4)cc3)cc2)cn1` [Example 11], the figure is 150 nM; as for `C/N=C(\NC)SCc1ccc(Oc2ccc(CS/C(=N/C)NC)cc2)cc1` [Example 12], 85 nM; as for `CNC(=N)SCc1ccc(Oc2ccc(CSC(=N)NC)cc2)cc1` [Example 13], 629 nM.
`c1cc(Oc2ccc(CSC3=NCCS3)cc2)ccc1CSC1=NCCS1` [Example 15, 2-[4-(4-(2Thiazolin)-2-ylthiomethyl-phenoxy-)-benzyl-thio]-2-thiazoline] returned an inhibition constant Ki of 2570 nM.
As for `Cn1ccnc1SCc1ccc(Oc2ccc(CSc3nccn3C)cc2)cc1` [Example 16, 2-[4-(4-(1Methyl-imidazo)-2-ylthiomethyl-phenoxy-)-benzyl-thio]-1-methyl-imidazole], the figure is 792 nM; as for `c1cc(Oc2ccc(CNC3=NCCN3)cc2)ccc1CNC1=NCCN1` [Example 17, 2-[4-(4-(2Imidazolin)-2-ylaminomethyl-phenoxy-)-benzyl-amino]-2-imidazolidone], 344 nM.
As for `c1ccn(Cc2ccc(COc3ccc(CN4CCCC4)cc3)cc2)c1` [Example 20, 1-[4-(4Pyrrolidin1-ylmethyl-phenoxymethyl)-benzyl]-1H-pyrrole], the figure is 16 nM.
Under `c1ccc(CN(c2ccc(CN3CCCC3)cc2)c2ccc(CN3CCCC3)cc2)cc1` [Example 23, Benzyl-bis-(4pyrrolidin1-ylmethyl-phenyl)-amine] stands 15 nM.
In the case of `c1cc(N(CCCN2CCCCC2)c2ccc(CN3CCCC3)cc2)ccc1CN1CCCC1` [Example 24, (3Piperidin-1-yl-propyl)-bis-(4pyrrolidin1-ylmethyl-phenyl)-amine], the inhibitory constant (Ki) amounted to 3.5 nM.
As for `CN(C)CCN(c1ccc(CN2CCCC2)cc1)c1ccc(CN2CCCC2)cc1` [Example 25], the figure is 453 nM; as for `O=[N+]([O-])c1cc(CN2CCCCC2)ccc1Sc1ccc(N2CCCCC2)cc1` [Example 26, 1-[4-(4-Piperidine-phenylsulfanyl)-3-nitro-benzyl]-piperidine], 756 nM; as for `O=Cc1ccc(-c2ccc(CN3CCCC3)cc2)cc1` [Example 27, 4′-Pyrrolidin-1-ylmethyl-biphenyl-4-carbaldehyde], 8.7 nM.
Under `ON=Cc1ccc(-c2ccc(CN3CCCC3)cc2)cc1` [Example 28, 4′-Pyrrolidin-1-ylmethyl-biphenyl-4-carbaldehyde oxime] stands 6.5 nM; under `c1cc(CCN2CCCC2)ccc1CCc1ccc(CCN2CCCC2)cc1` [Example 29, 1-(2-{4-[2-(1-Phenethyl-pyrrolidine)-ethyl]-phenyl}-ethyl)-pyrrolidine], 26.6 nM.
As for `c1cc(Cn2ccc(CN3CCCC3)c2)ccc1CN1CCCC1` [Example 30], the figure is 24.2 nM; as for `c1cc(CN2CCCC2)n(Cc2ccc(CN3CCCC3)cc2)c1` [Example 31], 3.2 nM.
Take `CN(C)CCCSc1ccc(C(=O)c2ccc(SCCCN(C)C)cc2)cc1` [Example 32, Bis-[4-(3-dimethylamino-propylsulfanyl)-phenyl]methanone dihydrochloride]: the inhibitory constant (Ki) came out at 14 nM.
`CN(C)CCCOc1ccc(C(=O)c2ccc(O)cc2)cc1` [Example 33, [4-(3-Dimethylamino-propoxy)-phenyl]-(4-hydroxy-phenyl)-methanone]: the Ki worked out at 129 nM.
Under `CN(C)CCOc1ccc(C(=O)c2ccc(OCCN(C)C)cc2)cc1` [Example 34, Bis-[4-(2-dimethylamino-ethoxy)-phenyl]-methanone] stands 126 nM.
